Patent publication US9834558B2, “Substituted bridged urea analogs as sirtuin modulators” (GLAXOSMITHKLINE LLC, priority 2013, dated 2017)
Counter-ions that a name gives are not always drawn. Like-named read-outs stand apart in the source and are kept apart here.

Molecular target: T1, SIRT1 (Homo sapiens, UniProt Q96EB6)
T1 sequence (Q96EB6 1-747): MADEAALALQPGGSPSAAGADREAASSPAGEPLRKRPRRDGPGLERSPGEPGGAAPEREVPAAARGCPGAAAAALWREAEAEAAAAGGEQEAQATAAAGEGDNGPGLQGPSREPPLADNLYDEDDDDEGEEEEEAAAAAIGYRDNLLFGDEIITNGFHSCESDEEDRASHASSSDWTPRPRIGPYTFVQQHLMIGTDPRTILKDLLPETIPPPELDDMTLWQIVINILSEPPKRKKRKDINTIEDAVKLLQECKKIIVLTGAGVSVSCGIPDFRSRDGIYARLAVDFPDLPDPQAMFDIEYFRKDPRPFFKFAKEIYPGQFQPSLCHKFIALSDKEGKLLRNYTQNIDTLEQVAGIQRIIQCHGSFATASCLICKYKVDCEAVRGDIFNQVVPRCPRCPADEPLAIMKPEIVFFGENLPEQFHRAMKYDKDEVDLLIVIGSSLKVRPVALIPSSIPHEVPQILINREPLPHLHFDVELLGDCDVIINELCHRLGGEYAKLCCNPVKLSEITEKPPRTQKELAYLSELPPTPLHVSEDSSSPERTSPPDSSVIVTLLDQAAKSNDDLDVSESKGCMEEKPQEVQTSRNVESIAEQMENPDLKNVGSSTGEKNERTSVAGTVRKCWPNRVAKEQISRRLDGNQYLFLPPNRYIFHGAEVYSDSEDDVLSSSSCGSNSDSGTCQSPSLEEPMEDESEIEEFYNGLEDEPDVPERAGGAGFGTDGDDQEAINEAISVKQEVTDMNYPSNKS
Assay: Trp mass spectrometry assay of SIRT1 activation
Assay type: biochemical
Settings: for TRP Activity (EC1.5): EC1.5 = concentration that results in 150% activation of SIRT1
Procedure, shortened: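 N-terminal His-tagged human SIRT1 (10 nM, E. coli BL21(DE3)) with 0.5 μM Ac-RHKK(Ac)W-NH2 peptide and 120 μM βNAD+, 25 min at 25 °C in HEPES pH 7.5, formic acid stop. OAADPR or deacetylated peptide quantified by mass spectrometry; EC1.5 (50% activity increase over control) and Percent Maximum Activation reported.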

[1] = concentration giving 150% activation of SIRT1, Trp peptide substrate
[2] = Trp mass spectrometry assay, EC1.5 = concentration of test compound that results in 150% activation of SIRT1
[3] = Trp peptide assay, maximum activity relative to control (100%), read-out: TRP MAX RESP (percent maximum fold activation)
[4] = Trp peptide substrate, concentration giving 150% activation of SIRT1
[5] = Trp mass spectrometry assay, concentration of test compound giving 150% activation of SIRT1

In the case of `CCCCC(=O)c1cccc(NC(=O)N2c3nc(-c4cccc(C(F)(F)F)c4)ccc3N3CC[C@H]2C3)c1` [Example 737], the “Tryp AVG EC1.5 (μM)” value [1] is reported as “A (A (EC1.5<1 μM))”.

For `O=C(Nc1cnccn1)N1c2nc(-c3cccc(C(F)(F)F)c3)ccc2N2CCC1CC2` [Example 472], the “Tryp AVG EC1.5 (μM)” value [2] was “A (A (EC1.5<1 μM))”.

In the case of `O=C(NCC1CC1)c1ccc2c(n1)N(C(=O)Nc1ccccn1)[C@H]1CCN2C1` [(9S)-5-N-(cyclopropylmethyl)-8-N-(pyridin-2-yl)-1,6,8-triazatricyclo[7.2.1.0 {2,7}]dodeca-2(7),3,5-triene-5,8-dicarboxamide], the “TRP Activity (EC1.5)” value (Trp peptide assay) is reported as “A (A (EC1.5<1 μM))” and the Emax [3] is reported as over 150%.

For `FC(F)(F)c1cccc(-c2ccc3c(n2)N(C(=S)Nc2cccc(-c4cnco4)c2)[C@H]2CCN3C2)c1` [Example 763], the “Tryp AVG EC1.5 (μM)” value [1] was “A (A (EC1.5<1 μM))”.

With `Cc1cc(-c2ccc3c(n2)N(C(=O)N2CCO[C@@H](C)C2)[C@H]2CCN3C2)ccn1` [(9S)-8-{[(2S)-2-methylmorpholin-4-yl]carbonyl}-5-(2-methylpyridin-4-yl)-1,6,8-triazatricyclo[7.2.1.0 {2,7}]dodeca-2(7),3,5-triene hydrochloride] the “TRP Activity (EC1.5)” value (Trp peptide assay) was “C (C (EC1.5>25 μM))” and the Emax [3] was under 150%.

In the case of `CCN(CC)C(=O)N1c2nc(-c3cccc(C(F)(F)F)c3)ccc2N2CC[C@H]1C2` [Example 52], the “Tryp AVG EC1.5 (μM)” value [4] is reported as “C (C (EC1.5>25 μM))”.

`O=C(Nc1cnccn1)N1c2nc(-c3cncc(Cl)c3)ccc2N2CCC[C@H]1C2` [Example 417] was tested, and the “Tryp AVG EC1.5 (μM)” value [5] was “A (A (EC1.5<1 μM))”.

For `Cc1ccc(-c2ccc3c(n2)N(C(=O)Nc2cccnn2)[C@H]2CCCN3C2)cn1` [Example 467], the “Tryp AVG EC1.5 (μM)” value [2] was “B (B (EC1.5 1-25 μM))”.

With `CC(C)(C)OC(=O)NCCNC(=N)c1ccc(NC(=O)N2c3nc(-c4cccc(C(F)(F)F)c4)ccc3N3CCC[C@H]2C3)cc1` [Example 788] the “Tryp AVG EC1.5 (μM)” value [1] was “A (A (EC1.5<1 μM))”.

With `O=C(Nc1cccnc1)N1c2nc(-c3cccc(Cl)c3)ccc2N2CCC1CC2` [Example 496] the “Tryp AVG EC1.5 (μM)” value [2] was “A (A (EC1.5<1 μM))”.

With `Cc1cncc(-c2ccc3c(n2)N(C(=O)Nc2ccncn2)[C@H]2CCCN3C2)c1` [Example 517] the “Tryp AVG EC1.5 (μM)” value [2] was “A (A (EC1.5<1 μM))”.

In the case of `Cc1cncc(-c2ccc3c(n2)N(C(=O)Nc2cccnc2)[C@H]2CCCN3C2)c1` [Example 515], the “Tryp AVG EC1.5 (μM)” value [2] is reported as “A (A (EC1.5<1 μM))”.

In the case of `O=C(Nc1ccncc1)N1c2nc(N3CCCC(C(F)(F)F)C3)ccc2N2CCC[C@H]1C2` (stereo partly drawn) [Example 360], the “Tryp AVG EC1.5 (μM)” value [5] is reported as “A (A (EC1.5<1 μM))”.

For `Cc1ccc(-c2ccc3c(n2)N(C(=O)NC2CCN(C)CC2)[C@H]2CCN3C2)cn1` [(9S)-N-(1-methylpiperidin-4-yl)-5-(6-methylpyridin-3-yl)-1,6,8-triazatricyclo[7.2.1.0^{2,7}]dodeca-2(7),3,5-triene-8-carboxamide], the “TRP Activity (EC1.5)” value (Trp peptide assay) was “C (C (EC1.5>25 μM))” and the Emax [3] was under 150%.

For `O=C(Nc1ccccn1)N1c2nc(N3CCC(C(F)(F)F)CC3)ccc2N2CC[C@H]1C2` [(9S)-N-(pyridin-2-yl)-5-[4-(trifluoromethyl)piperidin-1-yl]-1,6,8-triazatricyclo[7.2.1.0 {2,7}]dodeca-2,4,6-triene-8-carboxamide], the “TRP Activity (EC1.5)” value (Trp peptide assay) was “A (A (EC1.5<1 μM))” and the Emax [3] was over 150%.

`O=C1OC2(c3ccc(O)cc3Oc3cc(O)ccc32)c2ccc(NC(=S)NCc3cn(C4=CC(NC(=O)N5c6nc(-c7cccc(C(F)(F)F)c7)ccc6N6CC[C@H]5C6)CC=C4)nn3)cc21` (stereo partly drawn) [Example 608] was tested, and the “Tryp AVG EC1.5 (μM)” value [2] was “C (C (EC1.5>25 μM))” and the Emax (Trp mass spectrometry assay, percent maximum fold activation of SIRT1, read-out: Tryp % Fold Act) was under 150%.

In the case of `COc1ccc(-c2ccc3c(n2)N(C(=O)Nc2cnccn2)[C@H]2CCN3C2)cn1` [Example 399], the “Tryp AVG EC1.5 (μM)” value [5] is reported as “B (B (EC1.5 1-25 μM))”.

`O=C(Nc1ccc(F)cn1)N1c2nc(N3CCC[C@H](C(F)(F)F)C3)ccc2N2CCC[C@H]1C2` [drawing 1177, (9S)-N-(5-fluoropyridin-2-yl)-5-[(3S)-3-(trifluoromethyl)piperidin-1-yl]-1,6,8-triazatricyclo[7.3.1.0 {2,7}]trideca-2(7),3,5-triene-8-carboxamide] was tested, and the “TRP Activity (EC1.5)” value (Trp peptide assay) was “A (A (EC1.5<1 μM))” and the Emax [3] was over 150%.

`O=C(Nc1ccccn1)N1c2nc(-c3cncc(C(F)(F)F)c3)ccc2N2C[C@@H](O)[C@H]1C2` [Example 694] was tested, and the “Tryp AVG EC1.5 (μM)” value [1] was “A (A (EC1.5<1 μM))”.

In the case of `CCNC(=O)c1ccc2c(n1)N(C(=O)Nc1ccccn1)[C@H]1CCN2C1` [(9S)-5-N-ethyl-8-N-(pyridin-2-yl)-1,6,8-triazatricyclo[7.2.1.0 {2,7}]dodeca-2(7),3,5-triene-5,8-dicarboxamide], the “TRP Activity (EC1.5)” value (Trp peptide assay) is reported as “A (A (EC1.5<1 μM))” and the Emax [3] is reported as over 150%.

`Cc1cc(OCC(O)CO)nc(NC(=O)N2c3nc(-c4cccc(C(F)(F)F)c4)ccc3N3CC[C@H]2C3)n1` (stereo partly drawn) [Example 26] was tested, and the “Tryp AVG EC1.5 (μM)” value [4] was “B (B (EC1.5 1-25 μM))”.

In the case of `CC(C)(C)OC(=O)NCC#Cc1cc(NC(=O)N2c3nc(-c4cccc(C(F)(F)F)c4)ccc3N3CCC[C@H]2C3)cc(-c2cnco2)c1` [Example 760], the “Tryp AVG EC1.5 (μM)” value [1] is reported as “A (A (EC1.5<1 μM))”.

In the case of `O=C(Nc1ccccn1)N1c2nc(-c3cncc(C(F)(F)F)c3)ccc2N2CCC[C@H]1C2` [Example 369], the “Tryp AVG EC1.5 (μM)” value [5] is reported as “A (A (EC1.5<1 μM))”.

`O=C(Nc1cnccn1)N1c2nc(-c3ccc(OC(F)F)nc3)ccc2N2CC[C@H]1C2` [(9S)-5-[6-(difluoromethoxy)pyridin-3-yl]-N-(pyrazin-2-yl)-1,6,8-triazatricyclo[7.2.1.0 {2,7}]dodeca-2(7),3,5-triene-8-carboxamide] was tested, and the “TRP Activity (EC1.5)” value (Trp peptide assay) was “B (B (EC1.5 1-25 μM))” and the Emax [3] was over 150%.

`O=C(Nc1ccncn1)N1c2nc(-c3cccc(Cl)c3)ccc2N2CCC1CC2` [Example 534] was tested, and the “Tryp AVG EC1.5 (μM)” value [2] was “B (B (EC1.5 1-25 μM))”.

In the case of `O=C(Nc1ccccn1)N1c2nc(-c3cccc(C(F)(F)F)c3F)ccc2N2CC[C@H]1C2` [Example 334], the “Tryp AVG EC1.5 (μM)” value [5] is reported as “B (B (EC1.5 1-25 μM))”.

For `Cc1cc(-c2ccc3c(n2)N(C(=O)N2CCOCC2)[C@H]2CCN3C2)ccn1` [(9S)-5-(2-methylpyridin-4-yl)-8-[(morpholin-4-yl)carbonyl]-1,6,8-triazatricyclo[7.2.1.0 {2,7}]dodeca-2,4,6-triene], the “TRP Activity (EC1.5)” value (Trp peptide assay) was “C (C (EC1.5>25 μM))” and the Emax [3] was under 150%.

In the case of `CC(C)(C)OC(=O)NCc1cccc(-c2ccc3c(n2)N(C(=O)Nc2ccncc2)[C@H]2CCN3C2)c1` [Example 794], the “Tryp AVG EC1.5 (μM)” value [1] is reported as “B (B (EC1.5 1-25 μM))” and the Emax (percent maximum fold activation of SIRT1, Trp peptide substrate, read-out: Tryp % Fold Act) is reported as over 150%.

With `CCc1cnc(NC(=O)N2c3nc(-c4ccc(C)nc4)ccc3N3CC[C@H]2C3)cn1` [(9S)-N-(5-ethylpyrazin-2-yl)-5-(6-methylpyridin-3-yl)-1,6,8-triazatricyclo[7.2.1.0^{2,7}]dodeca-2,4,6-triene-8-carboxamide] the “TRP Activity (EC1.5)” value (Trp peptide assay) was “B (B (EC1.5 1-25 μM))” and the Emax [3] was over 150%.

In the case of `CC(C)(C)OC(=O)NCCn1cc(-c2cccc(NC(=O)N3c4nc(-c5cccc(C(F)(F)F)c5)ccc4N4CCC[C@H]3C4)c2)nn1` [Example 604], the “Tryp AVG EC1.5 (μM)” value [2] is reported as “A (A (EC1.5<1 μM))”.

With `O=C(Nc1cc(O)ncn1)N1c2nc(N3CCCC(C(F)(F)F)C3)ccc2N2CCC[C@H]1C2` (stereo partly drawn) [Example 361] the “Tryp AVG EC1.5 (μM)” value [5] was “A (A (EC1.5<1 μM))”.

`NCc1ncc(-c2cccc(NC(=O)N3c4nc(-c5cccc(C(F)(F)F)c5)ccc4N4CC[C@H]3C4)c2)o1` [Example 725] was tested, and the “Tryp AVG EC1.5 (μM)” value [1] was “A (A (EC1.5<1 μM))”.

`O=C(NCCc1ccccn1)N1c2nc(-c3cccc(C(F)(F)F)c3)ccc2N2CC[C@H]1C2` [Example 614] was tested, and the “Tryp AVG EC1.5 (μM)” value [2] was “B (B (EC1.5 1-25 μM))”.

In the case of `CS(=O)(=O)c1cccc(-c2ccc3c(n2)N(C(=O)Nc2cccc(-c4cnco4)c2)[C@H]2CCN3C2)c1` [Example 710], the “Tryp AVG EC1.5 (μM)” value [1] is reported as “A (A (EC1.5<1 μM))”.
